Experimental data: ChEMBL document CHEMBL2073962, “Wild-type breast cancer resistance protein (BCRP/ABCG2) is a methotrexate polyglutamate transporter” (Cancer Res, 2003)
Values belong to the molecule of their own block, whether it stands above or below them.

How the values were obtained:
[1] = molecular target: T1, Broad substrate specificity ATP-binding cassette transporter ABCG2 (Homo sapiens, UniProt Q9UNQ0); experiment: TP_TRANSPORTER: inhibition of MTX update by Mitoxantrone at a concentration of 50uM in membrane vesicles from BCRP-expressing MCF7 cells; format: functional, cell membranes, Membrane vesicle; set-up: scale not given: the % may be the effect or the level left; conditions: mcf7, 50 µM
T1 sequence (Q9UNQ0 whole entry): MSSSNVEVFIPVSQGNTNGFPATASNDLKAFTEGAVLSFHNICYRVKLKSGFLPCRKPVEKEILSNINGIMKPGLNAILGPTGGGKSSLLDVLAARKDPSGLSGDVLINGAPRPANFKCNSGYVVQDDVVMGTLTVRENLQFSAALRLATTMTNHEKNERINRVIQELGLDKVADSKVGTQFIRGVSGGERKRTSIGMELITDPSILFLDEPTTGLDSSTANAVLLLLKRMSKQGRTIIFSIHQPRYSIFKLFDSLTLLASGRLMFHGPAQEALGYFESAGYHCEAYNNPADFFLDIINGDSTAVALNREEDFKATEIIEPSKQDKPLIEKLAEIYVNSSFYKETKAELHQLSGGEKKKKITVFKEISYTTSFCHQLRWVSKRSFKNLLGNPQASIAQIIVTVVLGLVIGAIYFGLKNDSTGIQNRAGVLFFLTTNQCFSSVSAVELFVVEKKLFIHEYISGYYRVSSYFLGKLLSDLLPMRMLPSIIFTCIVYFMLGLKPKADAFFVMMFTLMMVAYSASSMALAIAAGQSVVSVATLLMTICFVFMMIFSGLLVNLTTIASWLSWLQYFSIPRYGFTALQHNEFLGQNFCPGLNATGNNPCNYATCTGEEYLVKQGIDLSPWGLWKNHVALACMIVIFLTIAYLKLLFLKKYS

[2] = molecular target: T1, Broad substrate specificity ATP-binding cassette transporter ABCG2; experiment: (§1) TP_TRANSPORTER: uptake (vesicle) in membrane vesicles from BCRP-expressing MCF7 cells; format: functional, cell membranes
[3] = molecular target: T1, Broad substrate specificity ATP-binding cassette transporter ABCG2; experiment: TP_TRANSPORTER: inhibition of MTX in membrane vesicles from BCRP-expressing MCF7 cells; format: functional, cell membranes, Membrane vesicle
[4] = substrate: CN(Cc1cnc2nc(N)nc(N)c2n1)c1ccc(C(=O)N[C@@H](CCC(=O)O)C(=O)O)cc1; experiment: as §1; format: functional, cell membranes

Molecule: O=C1c2c(O)ccc(O)c2C(=O)c2c(NCCNCCO)ccc(NCCNCCO)c21 [MITOXANTRONE]
- Activity [1]: 50%

- Activity [2]: substrate []
Molecule: CN(Cc1cnc2nc(N)nc(N)c2n1)c1ccc(C(=O)N[C@@H](CCC(=O)N[C@@H](CCC(=O)N[C@@H](CCC(=O)O)C(=O)O)C(=O)O)C(=O)O)cc1

Molecule: COc1ccc2c3c([nH]c2c1)[C@H](C=C(C)C)N1C(=O)[C@@H]2CCCN2C(=O)[C@@H]1C3 [FUMITREMORGIN]
- Activity [3]: inhibitor []

- Activity [2]: substrate []
Molecule: CN(Cc1cnc2nc(N)nc(N)c2n1)c1ccc(C(=O)N[C@@H](CCC(=O)N[C@@H](CCC(=O)N[C@@H](CCC(=O)N[C@@H](CCC(=O)O)C(=O)O)C(=O)O)C(=O)O)C(=O)O)cc1

B1: Broad substrate specificity ATP-binding cassette transporter ABCG2 (Homo sapiens) (protein)
chain: T1 sequence (Q9UNQ0 whole entry)
- Km [4]: 680 µM
